Source: patent US10196412B2, “Probe for imaging PARP-1 activity” (The Board of Trustees of the Leland Stanford Junior …, priority 2014, dated 2019)

What was measured:
PARP-1 [1] = molecular target: T1, PARP-1 (Homo sapiens, UniProt P09874); assay: PET imaging of tracer retention in animal models of tumor radiation therapy; type: in vivo, mice; set-up: endogenous in cells; host or cells: HeLa xenografts and orthotopic MDA-MB-231 tumours in mice
Source text: FIG. 8 illustrates a schematic showing animal studies performed with ^18F-PEG2-NAD (Substrate-based PARP-1 Activity Reporter: ^18F-SuPAR)
FIGS. 9A-9C illustrate the validation of ^18F-SuPAR in mice bearing HeLa tumor xenografts following radiation therapy.
FIGS. 10A-10C illustrate the validation of ^18F-SuPAR in mice bearing orthotopic MDA-MB-231 tumors following radiation therapy.
FIGS. 11A-11D illustrate the validation of PARP-1 as target of ^18F-SuPAR following inhibition by BMN673.
One advantageous tracer probe of the disclosure is an efficient analog of NAD that has been labelled by ^18F-radionuclide for PET imaging. It is contemplated, however, that other radionuclides detectable by PET imaging technology can be used in place of ^18F. Previously unknown relationships between NAD modification and PARP-1 substrate potential have been elucidated to synthesize the tracer, 6N-(triazo-PEG2-^18F)-NAD. This tracer was validated for PARP-1 activity in vivo in two animal models of tumor radiation therapy. […] Results were confirmed ex vivo by autoradiography and immunofluorescence analysis of tumor sections.

PARP-1 [2] = molecular target: T1, PARP-1; assay: gel-shift assay for in vitro assessment of PARP-1 activity; type: biochemical
PARG = PARG (Homo sapiens, UniProt Q86W56); assay: PARG-mediated degradation of PAR formed from probe (gel); type: biochemical; details: FIG. 4D
Chain of PARG (Q86W56 whole entry, species assumed): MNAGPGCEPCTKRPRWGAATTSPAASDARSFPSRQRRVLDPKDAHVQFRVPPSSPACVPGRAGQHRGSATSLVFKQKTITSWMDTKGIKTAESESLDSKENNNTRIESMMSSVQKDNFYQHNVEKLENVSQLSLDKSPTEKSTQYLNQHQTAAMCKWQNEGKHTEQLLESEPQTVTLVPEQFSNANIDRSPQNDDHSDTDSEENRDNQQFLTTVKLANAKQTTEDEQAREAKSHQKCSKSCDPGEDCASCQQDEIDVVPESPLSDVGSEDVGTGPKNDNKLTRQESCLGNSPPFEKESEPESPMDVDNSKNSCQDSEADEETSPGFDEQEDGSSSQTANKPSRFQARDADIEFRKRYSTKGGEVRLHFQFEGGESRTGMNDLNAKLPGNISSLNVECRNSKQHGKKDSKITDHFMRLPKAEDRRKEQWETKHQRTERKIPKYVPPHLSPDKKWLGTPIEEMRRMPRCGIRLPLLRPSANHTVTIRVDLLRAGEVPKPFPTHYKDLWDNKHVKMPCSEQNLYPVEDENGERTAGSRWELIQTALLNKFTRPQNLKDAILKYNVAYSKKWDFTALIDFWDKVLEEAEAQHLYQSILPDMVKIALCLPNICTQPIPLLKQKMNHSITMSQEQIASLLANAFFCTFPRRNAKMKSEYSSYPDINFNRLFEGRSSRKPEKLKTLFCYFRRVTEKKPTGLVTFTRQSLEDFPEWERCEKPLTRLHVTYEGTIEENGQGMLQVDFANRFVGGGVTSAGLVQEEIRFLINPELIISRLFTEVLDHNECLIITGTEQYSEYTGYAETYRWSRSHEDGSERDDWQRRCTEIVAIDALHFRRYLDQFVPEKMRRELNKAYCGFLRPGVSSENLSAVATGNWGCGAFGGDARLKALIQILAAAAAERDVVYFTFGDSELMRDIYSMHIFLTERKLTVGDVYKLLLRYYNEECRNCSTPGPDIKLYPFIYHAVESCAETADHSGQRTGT
Source text: FIG. 4A illustrates novel substrate-based PARP-1 probes assessed for in vitro PARP-1 activity and PARG-mediated degradation of PAR.

ARH3 = molecular target: T2, ARH3 (Homo sapiens, UniProt Q9NX46); assay: ARH3-mediated degradation of PAR formed from probe (gel); type: biochemical; details: FIG. 4D
T2 sequence (Q9NX46 1-363): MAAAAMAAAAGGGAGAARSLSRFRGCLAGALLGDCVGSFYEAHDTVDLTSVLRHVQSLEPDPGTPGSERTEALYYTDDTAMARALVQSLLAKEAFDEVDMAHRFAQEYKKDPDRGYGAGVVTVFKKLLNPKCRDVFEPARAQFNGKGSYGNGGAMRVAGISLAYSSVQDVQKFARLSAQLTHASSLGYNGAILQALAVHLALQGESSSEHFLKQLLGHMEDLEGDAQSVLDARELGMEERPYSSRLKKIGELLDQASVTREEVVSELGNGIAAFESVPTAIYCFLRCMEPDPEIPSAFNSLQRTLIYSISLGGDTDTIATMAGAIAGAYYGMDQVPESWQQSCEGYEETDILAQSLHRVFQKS

T1 sequence (P09874 whole entry): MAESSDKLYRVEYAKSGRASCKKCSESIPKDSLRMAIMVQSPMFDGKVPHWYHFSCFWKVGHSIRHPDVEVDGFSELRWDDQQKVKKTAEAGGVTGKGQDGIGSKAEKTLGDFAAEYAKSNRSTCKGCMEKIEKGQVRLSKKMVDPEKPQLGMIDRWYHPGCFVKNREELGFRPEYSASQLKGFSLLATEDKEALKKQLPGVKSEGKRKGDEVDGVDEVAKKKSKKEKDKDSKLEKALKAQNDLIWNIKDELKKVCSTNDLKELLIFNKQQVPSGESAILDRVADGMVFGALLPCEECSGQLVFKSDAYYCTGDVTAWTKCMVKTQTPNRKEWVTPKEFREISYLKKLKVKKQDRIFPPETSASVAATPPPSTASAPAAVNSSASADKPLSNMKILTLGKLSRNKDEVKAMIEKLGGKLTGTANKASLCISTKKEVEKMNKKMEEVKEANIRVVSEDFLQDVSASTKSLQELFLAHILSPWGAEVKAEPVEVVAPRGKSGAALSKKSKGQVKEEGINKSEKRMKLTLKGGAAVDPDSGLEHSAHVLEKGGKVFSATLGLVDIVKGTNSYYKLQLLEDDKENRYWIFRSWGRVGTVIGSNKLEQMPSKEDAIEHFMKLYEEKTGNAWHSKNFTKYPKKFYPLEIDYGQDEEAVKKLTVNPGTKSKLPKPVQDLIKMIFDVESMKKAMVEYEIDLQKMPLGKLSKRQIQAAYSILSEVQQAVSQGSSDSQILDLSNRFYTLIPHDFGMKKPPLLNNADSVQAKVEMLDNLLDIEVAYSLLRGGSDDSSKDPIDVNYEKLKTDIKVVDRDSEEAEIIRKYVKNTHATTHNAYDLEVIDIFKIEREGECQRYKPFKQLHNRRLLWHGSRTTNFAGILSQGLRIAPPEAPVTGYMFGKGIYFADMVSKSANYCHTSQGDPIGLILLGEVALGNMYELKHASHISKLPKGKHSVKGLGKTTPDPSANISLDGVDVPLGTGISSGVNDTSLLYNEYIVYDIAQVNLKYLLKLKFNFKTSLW

SMILES: NC(=O)c1ccc[n+](C2OC(COP(=O)(O)OP(=O)(O)OCC3OC(n4cnc5c(NCc6cn(COCC[18F])nn6)ncnc54)C(O)C3O)C(O)C2O)c1 (stereo not shown) [6N-(triazo-PEG2-^18F)-NAD]
- tracer retention with increasing doses of radiation (PARP-1 [1]; 0, 5, 10 Gy, two animal models of tumor radiation therapy): dose-dependence of tracer retention was observed
- probe target verification using a highly potent PARP-1 inhibitor (PARP-1 [1]; in vivo, confirmed ex vivo by autoradiography and immunofluorescence): verified as PARP-1
- time-dependence of maximal tracer uptake (PARP-1 [1]; two animal models of tumor radiation therapy): tumor-type specific

SMILES: C#CCNc1ncnc2c1ncn2[C@@H]1O[C@H](COP(=O)(O)OP(=O)(O)OC[C@H]2O[C@@H]([n+]3cccc(C(N)=O)c3)[C@H](O)[C@@H]2O)[C@@H](O)[C@H]1O [LCD11, Nicotinamide 6-N-propargyladenine dinucleotide]
- incorporation into high molecular weight PAR (PARP-1 [2]; low percentage ratios of alkyne probe to NAD, FIG. 6B): incorporation into high molecular weight PAR occurs

SMILES: NC(=O)c1ccc[n+]([C@@H]2O[C@H](COP(=O)(O)OP(=O)(O)OC[C@H]3O[C@@H](n4cnc5c(NCc6cn(CCOCCOCCF)nn6)ncnc54)[C@H](O)[C@@H]3O)[C@@H](O)[C@H]2O)c1 [LCD67]
- degradation by PARG (PARG): resistance to degradation
- degradation by ARH3 (ARH3): resistance to degradation

SMILES: Nc1cccc2c(=O)[nH][nH]c(=O)c12 [luminol, reference compound]
- inhibition of PARP-1 (PARP-1 [2]; gel, FIG. 2A): inhibits PARP-1
